Data: PubChem BioAssay (NCI)
Several values for one entry are separate records, joined by “and”; a condition that tells them apart may be missing. Equal entries are not always repeated.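 Results reflect a 48-hour exposure of cells in 96-well plates to compound at five concentrations. GI50 = concentration required for 50% inhibition of growth. At the TGI there is no net growth.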

What was measured:
Assay in all cases: NCI tumour cell line growth inhibition, 48 h
[1] = test system: COLO 205 colon
[2] = test system: ACHN renal
[3] = test system: HOP-62 NSCLC
[4] = test system: HT29 colon
[5] = test system: HCC-2998 colon
[6] = test system: 786-0 renal
[7] = test system: SF-295 CNS
[8] = test system: MALME-3M melanoma
[9] = test system: SNB-75 CNS
[10] = test system: SK-OV-3 ovarian

Row | Structure (SMILES) | TGI [1] [µM] | TGI [2] [µM] | TGI [3] [µM] | TGI [4] [µM] | TGI [5] | TGI [6] [µM] | TGI [7] [µM] | TGI [8] | TGI [9] [µM] | GI50 [1] | GI50 [2] [µM] | GI50 [10] [µM] | TGI [10] [µM] | GI50 [4] | GI50 [5] | GI50 [6] [µM] | GI50 [7] | GI50 [8] | GI50 [3] [µM] | GI50 [9] [µM]
1 | CC1(C(=O)O)CCOc2ccccc21 (stereo not given) | > 100 | > 100 | > 100 | > 100 | > 100 µM | > 100 | > 100 | > 100 µM | > 100 | – | – | – | – | – | – | – | – | – | – | –
2 | Cn1cnc2c(F)c(Nc3ccc(Br)cc3F)c(C(=O)NOCCO)cc21 | – | > 100 | > 100 | > 100 | 4.51 µM | > 100 | > 100 | 0.138 µM and 0.0486 µM | – | 0.0113 µM and 0.0236 µM | 10.5 | > 92 | > 100 | 0.0263 µM and 0.0316 µM | 0.0162 µM and 0.034 µM | > 100 | > 67.7 µM | 0.0136 µM and < 0.01 µM | – | –
3 | C=C1C(OC/C=C/COC2O[C@@H]3O[C@@]4(C)CC[C@H]5[C@H](C)CC[C@@H](C2=C)[C@@]35OO4)O[C@@H]2O[C@@]3(C)CC[C@H]4[C@H](C)CC[C@@H]1[C@@]24OO3 (stereo not given in full) | 13.6 | 17.3 | 41.5 | > 49.2 | – | 18.7 | 2.19 | 18.4 µM | 31.1 | 0.226 µM | 1.72 | 51.3 | > 100 | 0.0438 µM | – | 0.578 | – | 0.301 µM | 15.8 | 7.99
4 | O=C(Nc1ccc(Br)cc1)C(=O)C(C(=O)c1ccccc1F)C1OC(=O)c2ccccc21 (stereo not given) | 45.2 | > 100 | 50.8 | > 100 | 32.1 µM | 56.8 | – | 88.6 µM | 51.6 | – | – | – | > 100 | – | – | – | – | – | – | –
5 | NCc1c(C(N)=O)ncn1Cc1ccccc1 | > 100 | > 100 | > 100 | > 100 | > 100 µM | > 100 | > 100 | – | > 100 | – | – | – | > 100 | – | – | – | – | – | – | –
6 | COc1ccc2c(CCNC(=O)/C=C/c3ccccc3)c(C(C)=O)[nH]c2c1[N+](=O)[O-] | > 100 | > 100 | 76.2 | > 100 | > 100 µM | > 100 | 12.7 | – | – | – | – | – | – | – | – | – | – | – | – | –
7 | O=C(N/C(=C\c1ccc(/C=C(\NC(=O)c2ccccc2)c2nc3ccccc3s2)cc1)c1nc2ccccc2s1)c1ccccc1 | 16.5 | 16.7 | 32.3 | 19.1 | 27.8 µM | 3.49 | 16.1 | 25.2 µM | 26.7 | – | – | – | – | – | – | – | – | – | – | –
8 | CC(NC(=O)C(=O)N/N=C1\C[C@@H](c2ccccc2)Nc2ccccc21)c1ccccc1 (stereo not given in full) | > 100 | > 100 | > 100 | > 100 | > 100 µM | > 100 | > 100 | 99.6 µM | > 100 | – | – | – | – | – | – | – | – | – | – | –
9 | CC(C)C[C@H](NC(=O)[C@H](Cc1cccc2ccccc12)NS(=O)(=O)c1cccc2cccnc12)B(O)O | 3.79 | > 38.8 | 0.563 | 0.022 | 0.0149 µM and 0.0389 µM | 12.8 | – | 0.0175 µM and 0.0208 µM | – | 0.0288 µM | – | – | > 33.8 | 0.000937 µM | 0.0174 µM | 0.0495 | 0.0614 µM and 0.0596 µM | 0.000588 µM | 0.0511 | –
10 | C=C1CCCC2[C@](C)(CC3=C(O)C(=O)C=C(OC)C3=O)[C@@H](C)CC[C@]12C (stereo not given in full) | 21.2 | 47.7 | – | 36.1 | – | 18.3 | 13.7 | 9.93 µM | > 100 | – | – | – | 62.2 | – | – | – | – | – | – | –
11 | O=C(Nc1nc2ccc([N+](=O)[O-])cc2s1)C(=O)C(C(=O)c1ccncc1)C1OC(=O)c2ccccc21 (stereo not given) | > 100 | > 100 | > 100 | > 100 | > 100 µM | > 100 | – | > 100 µM | > 100 | – | – | – | – | – | – | – | – | – | – | –
12 | C=C(CNC(=O)c1ccccc1)c1ccc(C(=O)Nc2ccccc2N)cc1 | > 100 | > 100 | > 100 | > 100 | > 100 µM | > 100 | > 100 | > 100 µM | – | 5.88 µM | 3.86 | > 100 | > 100 | 3.86 µM | 9.3 µM | 7.55 | 12.5 µM | 2 µM | 63.7 | –
13 | O=c1oc2c3ccc4cnccc4c3[nH]c2c2ccccc12 | 17.4 | > 100 | 8.3 | 37.2 | – | 17.6 | > 100 | 45.1 µM | 65.6 | 4.24 µM | 31.5 | > 100 | > 100 | 10.5 µM | – | 4.47 | 41.7 µM | 18.9 µM | 3 | 20.6
14 | Fc1ccc2c(c1)C1=C(CO2)C(c2ccc(Cl)cc2)NC(=S)N1 (stereo not given) | 90.9 | > 100 | – | > 100 | – | 46 | 47.3 | – | > 100 | 31.3 µM | 37.4 | 68.8 | > 100 | 51.3 µM | – | 21.3 | 15.6 µM | – | – | 96.8
15 | CC(=O)OC1CCC2C(=CCC3C2(C)C(=O)CC2(C)C(C4(C)OC(C(C)C)=CC4=O)C(O)CC32C)C1(C)C (stereo not given) | > 100 | > 100 | > 100 | 32.3 | – | > 100 | – | 47.4 µM | > 100 | – | – | – | > 100 | – | – | – | – | – | – | –
16 | CS(=O)(=O)N(CCC#N)c1ccc(C=O)cc1 | – | > 100 | > 100 | > 100 | > 100 µM | > 100 | > 100 | > 100 µM | > 100 | – | – | – | > 100 | – | – | – | – | – | – | –
17 | Cn1c(=O)c(C(=O)NC(=O)NCCCCCOC(=O)CCCCCCCCCCC(=O)OCCCCCNC(=O)NC(=O)c2cn(Cc3ccccc3)c(=O)n(C)c2=O)cn(Cc2ccccc2)c1=O | > 100 | > 100 | > 100 | > 100 | > 100 µM | > 100 | – | > 100 µM | > 100 | – | – | – | > 100 | – | – | – | – | – | – | –
18 | CCOC(=O)N1C(c2ccccc2)C=CC(c2ccccc2)N1C(=O)OCC (stereo not given) | > 100 | > 100 | > 100 | > 100 | – | > 100 | > 100 | > 100 µM | > 100 | – | – | – | – | – | – | – | – | – | – | –
